# Laboratory results as given in patent US20250099400A1, “TERPENES FOR USE IN MODULATION OF A PHY[…]” (BUZZELET DEVELOPMENT AND TECHNOLOGIES LTD., priority 2022, published 2025).
# Target: T1, CB1 receptor (Homo sapiens, UniProt P21554)
# T1 construct: expressed in transfected cells; host or cells: Xenopus laevis oocytes injected with in vitro transcribed cRNA
# Test: CB1 receptor-activated GIRK currents in Xenopus oocytes (two-electrode voltage clamp)
# Assay type: cell-based
# Conditions: THC concentrations each supplemented with terpene at a weight/weight ratio of 1/10, compared with THC alone
# Description: cDNA plasmids of the two subunits of the G protein-activated inwardly rectifying K^+ channel (GIRK) (GIRK1 and GIRK2), the CB1 receptor, the CB2 receptor, and the α subunit of the G-protein (Gαi3) were linearized with the appropriate restriction enzymes. The linearized plasmids were transcribed in vitro using a standard procedure.
# Oocytes were isolated from female adult X. laevis anesthetized (with 1 g/L MS-222) and incubated in NDE96 solution composed of ND96 (in mM: 96 NaCl, 2 KCl, 1 CaCl2, 1 MgCl2, 5 Hepes, with pH adjusted to 7.5 with NaOH) with the addition of 2.5 mM Na^+ pyruvate, 100 units/ml penicillin, and 100 μg/ml streptomycin (16). The isolated oocytes were injected with the relevant cRNAs: cRNAs of CB1 receptor and CB2 receptor (2 ng) and GIRK1 and GIRK2 (200 pg each) were injected. In addition, cRNA of Gαi3 (1000 pg) was injected to decrease the basal GIRK current (IK) and to improve the relative activation by the agonist.
# Currents were measured 3-5 days after cRNA injection and were recorded using the standard two-electrode voltage clamp technique (Axoclamp 2B amplifier, Axon Instruments, Foster City, CA).
# Each oocyte was placed in a recording bath containing ND96 solution and was impaled with two electrodes pulled from 1.5-mm Clark capillaries (Warner instruments, Hamden, CT). Both electrodes were filled with a 3M KCI solution and the electrode resistance was between 1 and 5 MΩ. The CB1 receptor-mediated GIRK and the CB2 receptor-mediated GIRK currents were measured in 24 mM K^+ solution (in mM: 72 NaCl, 24 KCl, 1 CaCl2, 1 MgCl2, 5 Hepes, with pH adjusted to 7.5 with KOH). Ba^+2 (1 mM) was used to block the currents in order to verify that the measured currents were indeed mediated by GIRK channels.
# The dose response curves were fitted by equation 1:
# Y=Bottom+X*(Top-Bottom)/(EC50+X), (1)
# The responses evoked in the same oocyte by either THC and\or terpenes measurements, were normalized to this reference value.
# The Xenopus oocytes functional expression system was used to test the possibility that the presence of various terpenes affects the activation of the CB1 receptor, as depicted schematically in FIG. 1A. To this end, Xenopus oocytes were injected with cRNAs of proteins involved in the pathway leading to activation of K^+ currents by CB1 receptor via βγ subunits of the G-proteins: The CB1 receptor, the two subunits of the GIRK channel (GIRK1 and GIRK2), and the Gαi3 subunit.
# First, the dependence of THC-induced K^+ current (ITHC) on THC concentration (dose-response, DR) was measured. The oocyte was voltage-clamped to −80 mV in a low K^+ (2 mM K^+) solution, ND96. Basal GIRK current (IK) was developed upon replacement of the ND96 by the 24 mM K^+solution. This current represents the basal activation of GIRK channel by endogenous By subunits present in the oocytes. Then, five different concentrations of THC were applied sequentially in ascending order giving rise to ITHC. This current was terminated upon washout of THC. Employing this basic experimental protocol, a full DR curve was constructed.
# In order to compare between oocytes, ITHC at any particular THC concentration was normalized to ITHC obtained at a 10 μM THC, defined as the reference response, at this same oocyte.
# T1 sequence (P21554 whole entry): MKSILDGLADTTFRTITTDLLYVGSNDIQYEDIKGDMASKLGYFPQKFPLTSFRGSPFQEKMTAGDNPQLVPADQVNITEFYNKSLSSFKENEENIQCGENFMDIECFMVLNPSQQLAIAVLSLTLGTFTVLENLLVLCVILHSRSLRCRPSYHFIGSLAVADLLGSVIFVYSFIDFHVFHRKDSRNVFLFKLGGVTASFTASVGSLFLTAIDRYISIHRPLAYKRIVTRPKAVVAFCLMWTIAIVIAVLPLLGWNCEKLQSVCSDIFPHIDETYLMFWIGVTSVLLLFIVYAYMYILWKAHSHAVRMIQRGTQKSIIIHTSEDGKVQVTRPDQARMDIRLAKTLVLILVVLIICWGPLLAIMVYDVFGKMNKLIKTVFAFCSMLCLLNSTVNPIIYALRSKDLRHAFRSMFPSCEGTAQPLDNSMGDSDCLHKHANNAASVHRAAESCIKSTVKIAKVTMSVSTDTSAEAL
row,Compound,effect of terpene addition on the potency of THC in CB1 receptor activation
1,C=CC(C)(O)CCC=C(C)C (racemic) [linalool],significantly enhances the potency of THC
2,"C=C1CCC2CC1C2(C)C (stereo not drawn) [beta pinene, β-pinene]",significantly enhances the potency of THC
3,CC1(C)C2CCC1(C)C(O)C2 (stereo not drawn) [borneol],significantly enhances the potency of THC
4,CC(C)=CCC/C(C)=C/CO [geraniol],significantly enhances the potency of THC
5,"C=C(C)[C@H]1CC=C(C)CC1 [limonene, limonene-D]",significantly enhances the potency of THC
6,C=CC(C)=CCC=C(C)C [ocimene],significantly enhances the potency of THC
7,C=C1CCC2(C(C)C)CC12 (stereo not drawn) [sabinene],significantly enhances the potency of THC

# System: not listed separately
# Test: Solubility in the test solutions
# Conditions: 24 mM K+ solution, saline or isotonic, kinetic from dmso stock
row,Compound,solubility [µM]
1,"CCCCCc1cc(O)c2c(c1)OC(C)(C)[C@@H]1CCC(C)=C[C@@H]21 [THC, tetrahydrocannabinol, reference compound]",10

# Same assay, conditions: CB1 dose-response experiment; excluded from analysis
row,Compound,solubility relative to the tested concentration range
1,CC(C)=CCC[C@](C)(O)C1CC=C(C)CC1 (stereo partly drawn) [bisabolol],below the tested concentration range
2,C/C1=C\CC/C(C)=C/CC(C)(C)/C=C/C1 [humulene],below the tested concentration range
3,C=CC(C)(O)CCC=C(C)CCC=C(C)C (stereo not drawn) [nerolidol],below the tested concentration range
4,C=C1CC/C=C(\C)CC[C@@H]2[C@@H]1CC2(C)C [β-caryophyllene],below the tested concentration range
